≈ marks a conversion by molar mass, not a printed value. Where “and” joins values, the source holds several entries; their conditions need not be identical. Equal values may be shown once. Read-outs that look alike come from different tables or passages of the source.
Experiments:
CYP121 [1] = target: T1, CYP121 (Mycobacterium tuberculosis, UniProt P9WPP7); assay type: binding
Mtb H37Rv = experiment: Antimycobacterial activity assay (MIC90); assay type: cell-based, Mycobacterium tuberculosis; design: key to MIC90: “N” indicates that compounds did not produce any significant cell death within the tested concentration range; conditions: triplicate, 0–100 μM, 2 weeks
CYP121 [2] = target: T1, CYP121; experiment: Single shot UV–vis absorbance assay (Soret band shift, competition with type II inhibitor) on CYP121; assay type: binding; conditions: for Δλmax (change in wavelength of the Soret band): CYP121 5 μM, vs 1% v/v DMSO-d6 alone (λmax = 416.5 nm), single shot; for shifts in the CYP121 optical spectrum: UV–vis spectroscopy
CYP121 [3] = target: T1, CYP121; experiment: Native mass spectrometry of CYP121 with ligands; assay type: binding
CYP144TR = target: T2, CYP144TR (Mycobacterium tuberculosis, UniProt P9WPL1)
T2 sequence (P9WPL1 31-434 limits assumed): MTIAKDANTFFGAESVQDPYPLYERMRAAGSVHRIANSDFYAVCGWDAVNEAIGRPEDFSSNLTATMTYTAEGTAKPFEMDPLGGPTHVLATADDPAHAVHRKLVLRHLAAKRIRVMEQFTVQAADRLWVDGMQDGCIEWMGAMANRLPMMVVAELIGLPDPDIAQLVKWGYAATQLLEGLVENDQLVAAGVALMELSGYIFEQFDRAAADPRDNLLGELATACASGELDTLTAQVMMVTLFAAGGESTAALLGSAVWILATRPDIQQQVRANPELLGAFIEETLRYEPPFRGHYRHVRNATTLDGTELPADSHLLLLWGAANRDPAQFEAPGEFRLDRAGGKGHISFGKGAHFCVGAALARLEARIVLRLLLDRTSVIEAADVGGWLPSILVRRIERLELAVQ

CYP125 = target: T3, CYP125 (Mycobacterium tuberculosis, UniProt P9WPP1); experiment: Single shot UV–vis binding mode assay on CYP125
T3 sequence (P9WPP1 1-433): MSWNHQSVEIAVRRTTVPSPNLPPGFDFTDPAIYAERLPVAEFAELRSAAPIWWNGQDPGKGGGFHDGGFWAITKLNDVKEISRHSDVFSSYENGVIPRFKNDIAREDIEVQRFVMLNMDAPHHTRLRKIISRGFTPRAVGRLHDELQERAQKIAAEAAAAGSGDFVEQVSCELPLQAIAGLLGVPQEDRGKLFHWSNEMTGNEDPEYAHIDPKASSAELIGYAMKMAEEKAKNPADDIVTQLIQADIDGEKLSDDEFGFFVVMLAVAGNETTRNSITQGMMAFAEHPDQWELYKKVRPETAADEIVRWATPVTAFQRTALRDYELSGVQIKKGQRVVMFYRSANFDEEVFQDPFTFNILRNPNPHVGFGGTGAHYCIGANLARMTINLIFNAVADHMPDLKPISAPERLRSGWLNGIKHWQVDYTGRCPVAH

[4] = test system: CYP1A (combined CYP1A1 and CYP1A2); experiment: Human P450 inhibition in human liver microsomes, CYP1A (ethoxyresorufin); conditions: human, microsomes
[5] = Gibbs free energy of binding to CYP121 divided by number of heavy atoms (ΔG/HA)

T1 sequence (P9WPP7 whole entry): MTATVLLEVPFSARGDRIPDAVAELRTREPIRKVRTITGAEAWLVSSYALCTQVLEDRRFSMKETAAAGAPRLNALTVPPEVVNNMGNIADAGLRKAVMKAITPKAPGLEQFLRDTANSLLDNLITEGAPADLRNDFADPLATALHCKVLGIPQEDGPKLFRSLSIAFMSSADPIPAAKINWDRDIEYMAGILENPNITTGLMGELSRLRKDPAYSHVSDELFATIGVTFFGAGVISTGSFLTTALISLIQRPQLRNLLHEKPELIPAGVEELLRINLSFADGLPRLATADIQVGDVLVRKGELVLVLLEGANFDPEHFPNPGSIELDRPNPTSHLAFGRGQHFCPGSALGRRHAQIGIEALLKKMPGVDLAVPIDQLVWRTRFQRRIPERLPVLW

SMILES: Nc1[nH]nc(-c2cccc(O)c2)c1-c1ccc(O)cc1 [14b, 3-(5-Amino-4-(4-hydroxyphenyl)-1H-pyrazol-3-yl)phenol]
- LE (ligand efficiency) (CYP121 [1]; [5]): 0.29

SMILES: Nc1[nH]nc(-c2cccc(F)c2)c1-c1ccc(O)cc1 [14c, 4-(5-Amino-3-(3-fluorophenyl)-1H-pyrazol-4-yl)phenol]
- MIC90 (Mtb H37Rv): N
- LE (ligand efficiency) (CYP121 [1]; [5]): 0.25

SMILES: Nc1[nH]nc(-c2ccc(O)cc2O)c1-c1ccc(O)cc1 [14d, 4-(5-amino-4-(4-hydroxyphenyl)-1H-pyrazol-3-yl)benzene-1,3-diol]
- LE (ligand efficiency) (CYP121 [1]; [5]): 0.24

SMILES: Nc1[nH]ncc1-c1cccc(-c2cccnc2)c1 [18e, 4-(3-(Pyridin-3-yl)phenyl)-1H-pyrazol-5-amine]
- Δλmax (change in wavelength of the Soret band) (CYP121 [2]): 0 nm

SMILES: Nc1[nH]ncc1-c1cccc(-c2ccncc2)c1 [18f, 4-(3-(Pyridin-4-yl)phenyl)-1H-pyrazol-5-amine]
- Δλmax (change in wavelength of the Soret band) (CYP121 [2]): 1 nm

SMILES: Nc1[nH]ncc1-c1cccc(-c2ccc3[nH]ccc3c2)c1 [18g, 4-(3-(1H-Indol-5-yl)phenyl)-1H-pyrazol-5-amine]
- Δλmax (change in wavelength of the Soret band) (CYP121 [2]): 0 nm

SMILES: Nc1[nH]ncc1-c1cccc(-c2ccc3cc[nH]c3c2)c1 [18h, 4-(3-(1H-Indol-6-yl)phenyl)-1H-pyrazol-5-amine]
- Δλmax (change in wavelength of the Soret band) (CYP121 [2]): 0 nm

SMILES: Nc1[nH]ncc1-c1cccc(-c2cn[nH]c2)c1 [18i, 4-(3-(1H-Pyrazol-4-yl)phenyl)-1H-pyrazol-5-amine]
- Δλmax (change in wavelength of the Soret band) (CYP121 [2]): 0 nm

SMILES: Nc1cccc(-c2cccc(-c3cn[nH]c3N)c2)c1 [19a, 4-(3′-Amino-[1,1′-biphenyl]-3-yl)-1H-pyrazol-5-amine]
- MIC90 (Mtb H37Rv): N
- Monomer (%) of CYP121 (CYP121 [3]; Protein-Ligand Ratio 1:0.5): 23%
- ligand binding stoichiometry, CYP121 Dimer (CYP121 [3]; Protein-Ligand Ratio 1:0.5): 0
- ligand binding stoichiometry, CYP121 Monomer (CYP121 [3]; Protein-Ligand Ratio 1:0.5): 0
- Monomer (%) of CYP121 (CYP121 [3]; Protein-Ligand Ratio 1:1): 28%
- ligand binding stoichiometry, CYP121 Dimer (CYP121 [3]; Protein-Ligand Ratio 1:1): 0
- ligand binding stoichiometry, CYP121 Monomer (CYP121 [3]; Protein-Ligand Ratio 1:1): 0
- Monomer (%) of CYP121 (CYP121 [3]; Protein-Ligand Ratio 1:25): 33%
- ligand binding stoichiometry, CYP121 Dimer (CYP121 [3]; Protein-Ligand Ratio 1:25): 2
- ligand binding stoichiometry, CYP121 Monomer (CYP121 [3]; Protein-Ligand Ratio 1:25): 1
- LE (ligand efficiency) (CYP121 [1]): 0.35

SMILES: Nc1cccc(-c2cc(-c3cn[nH]c3N)ccc2OCc2ccccc2)c1 [19b, 4-(3′-Amino-6-(benzyloxy)-[1,1′-biphenyl]-3-yl)-1H-pyrazol-5-amine]
- shifts in the CYP121 optical spectrum (CYP121 [2]): type II shifts
- LE (ligand efficiency) (CYP121 [1]; [5]): 0.23

SMILES: COc1ccc(-c2cn[nH]c2N)cc1-c1cccc(N)c1 [19c, 4-(3′-Amino-6-methoxy-[1,1′-biphenyl]-3-yl)-1H-pyrazol-5-amine]
- shifts in the CYP121 optical spectrum (CYP121 [2]): type II shifts
- LE (ligand efficiency) (CYP121 [1]; [5]): 0.27

SMILES: COc1ccc(-c2n[nH]c(N)c2-c2cccc(-c3cccc(N)c3)c2)cc1 [24a, 4-(3′-Amino-[1,1′-biphenyl]-3-yl)-3-(4-methoxyphenyl)-1H-pyrazol-5-amine]
- MIC90 (Mtb H37Rv; Mycobacterium tuberculosis, 336 h, read-out: MIC90): 50 µM (≈ 17.8 µg/mL)
- shifts in the CYP121 optical spectrum (CYP121 [2]): type II shifts
- Monomer (%) of CYP121 (CYP121 [3]; Protein-Ligand Ratio 1:0.5): 19%
- ligand binding stoichiometry, CYP121 Dimer (CYP121 [3]; Protein-Ligand Ratio 1:0.5): 1
- ligand binding stoichiometry, CYP121 Monomer (CYP121 [3]; Protein-Ligand Ratio 1:0.5): 0
- Monomer (%) of CYP121 (CYP121 [3]; Protein-Ligand Ratio 1:1): 16%
- ligand binding stoichiometry, CYP121 Dimer (CYP121 [3]; Protein-Ligand Ratio 1:1): 1
- ligand binding stoichiometry, CYP121 Monomer (CYP121 [3]; Protein-Ligand Ratio 1:1): 1
- Monomer (%) of CYP121 (CYP121 [3]; Protein-Ligand Ratio 1:25): 16%
- ligand binding stoichiometry, CYP121 Dimer (CYP121 [3]; Protein-Ligand Ratio 1:25): 2
- ligand binding stoichiometry, CYP121 Monomer (CYP121 [3]; Protein-Ligand Ratio 1:25): 1
- LE (ligand efficiency) (CYP121 [1]; [5]): 0.38

SMILES: Nc1cccc(-c2cc(-c3c(-c4ccc(O)cc4)n[nH]c3N)ccc2O)c1 [25b, 3′-Amino-5-(5-amino-3-(4-hydroxyphenyl)-1H-pyrazol-4-yl)-[1,1′-biphenyl]-2-ol]
- Binding Mode, CYP144TR (CYP144TR): N
- Binding Mode, CYP125 (CYP125): N

SMILES: Oc1ccc(-c2n[nH]c(NCc3ccc(O)c(Br)c3)c2-c2ccc(O)cc2)cc1 [26b, 4,4′-(5-((3-Bromo-4-hydroxybenzyl)amino)-1H-pyrazole-3,4-diyl)diphenol]
- LE (ligand efficiency) (CYP121 [1]; [5]): 0.22

SMILES: Oc1ccc(-c2n[nH]c(NCc3ccsc3)c2-c2ccc(O)cc2)cc1 [26c, 4,4′-(5-((Thiophen-3-ylmethyl)amino)-1H-pyrazole-3,4-diyl)diphenol]
- LE (ligand efficiency) (CYP121 [1]; [5]): 0.25

SMILES: Oc1ccc(-c2n[nH]c(NCc3ccco3)c2-c2ccc(O)cc2)cc1 [26d, 4,4′-(5-((Furan-2-ylmethyl)amino)-1H-pyrazole-3,4-diyl)diphenol]
- LE (ligand efficiency) (CYP121 [1]; [5]): 0.24

SMILES: Oc1ccc(-c2n[nH]c(NCc3ccc4[nH]ccc4c3)c2-c2ccc(O)cc2)cc1 [26e, 4,4′-(5-(((1H-Indol-5-yl)methyl)amino)-1H-pyrazole-3,4-diyl)diphenol]
- LE (ligand efficiency) (CYP121 [1]; [5]): 0.19

SMILES: Oc1ccc(-c2n[nH]c(NCc3cccc4[nH]ncc34)c2-c2ccc(O)cc2)cc1 [26f, 4,4′-(5-(((1H-Indazol-4-yl)methyl)amino)-1H-pyrazole-3,4-diyl)diphenol]
- LE (ligand efficiency) (CYP121 [1]; [5]): 0.20

SMILES: Oc1ccc(-c2n[nH]c(NCc3ccncc3)c2-c2ccc(O)cc2)cc1 [26g, 4,4′-(5-((Pyridin-4-ylmethyl)amino)-1H-pyrazole-3,4-diyl)diphenol]
- LE (ligand efficiency) (CYP121 [1]; [5]): 0.18

SMILES: Oc1ccc(-c2n[nH]c(NCc3c[nH]cn3)c2-c2ccc(O)cc2)cc1 [26h, 4,4′-(5-(((1H-Imidazol-4-yl)methyl)amino)-1H-pyrazole-3,4-diyl)diphenol]
- Δλmax (type II shift) (CYP121 [2]; ligand 100 μM, CYP121): +1.5 nm
- LE (ligand efficiency) (CYP121 [1]; [5]): 0.19

SMILES: O=C(Nc1[nH]nc(-c2ccc(O)cc2)c1-c1ccc(O)cc1)c1ccccc1 [29a, N-(3,4-Bis(4-hydroxyphenyl)-1H-pyrazol-5-yl)benzamide]
- LE (ligand efficiency) (CYP121 [1]; [5]): 0.18

SMILES: O=C(Nc1[nH]nc(-c2ccc(O)cc2)c1-c1ccc(O)cc1)c1ccc(O)cc1 [29b, N-(3,4-Bis(4-hydroxyphenyl)-1H-pyrazol-5-yl)-4-hydroxybenzamide]
- LE (ligand efficiency) (CYP121 [1]; [5]): 0.19

SMILES: O=C(Nc1[nH]nc(-c2ccc(O)cc2)c1-c1ccc(O)cc1)c1ccncc1 [29c, N-(3,4-Bis(4-hydroxyphenyl)-1H-pyrazol-5-yl)isonicotinamide]
- MIC90 (Mtb H37Rv): N
- LE (ligand efficiency) (CYP121 [1]; [5]): 0.16

SMILES: CO[C@H]1/C=C/O[C@@]2(C)Oc3c(C)c(O)c4c(O)c(c(/C=N/N5CCN(C)CC5)c(O)c4c3C2=O)NC(=O)/C(C)=C\C=C\[C@H](C)[C@H](O)[C@@H](C)[C@@H](O)[C@@H](C)[C@H](OC(C)=O)[C@@H]1C [Rifampicin, reference compound]
- MIC (Mtb H37Rv; Mycobacterium tuberculosis, 336 h): 0.75 µM (≈ 0.617 µg/mL)

SMILES: O=c1cc(-c2ccccc2)oc2c1ccc1ccccc12 [alpha-naphthoflavone, reference compound]
- IC50 [4]: 59.7 nM

SMILES: Oc1ccc(Nc2[nH]nc(-c3ccc(O)cc3)c2-c2ccc(O)cc2)cc1 [compound 2, 4,4'-(5-((4-hydroxyphenyl)amino)-1H-pyrazole-3,4-diyl)diphenol]
- LE (ligand efficiency) (CYP121 [1]; [5]): 0.24 and 0.23

SMILES: Nc1cc(-c2ccc(O)cc2)n[nH]1 [compound 3, 4-(5-Amino-1H-pyrazol-3-yl)phenol]
- LE (ligand efficiency) (CYP121 [1]; [5]): 0.30

SMILES: Nc1[nH]ncc1-c1ccc(O)cc1 [compound 4, 4-(5-amino-1H-pyrazol-4-yl)phenol]
- LE (ligand efficiency) (CYP121 [1]; [5]): 0.29

SMILES: Oc1ccc(Nc2cc(-c3ccc(O)cc3)n[nH]2)cc1 [compound 6, 4-((3-(4-Hydroxyphenyl)-1H-pyrazol-5-yl)amino)phenol]
- Monomer (%) of CYP121 (CYP121 [3]; Protein-Ligand Ratio 1:0.5): 11%
- ligand binding stoichiometry, CYP121 Dimer (CYP121 [3]; Protein-Ligand Ratio 1:0.5): 0
- ligand binding stoichiometry, CYP121 Monomer (CYP121 [3]; Protein-Ligand Ratio 1:0.5): 0
- Monomer (%) of CYP121 (CYP121 [3]; Protein-Ligand Ratio 1:1): 26%
- ligand binding stoichiometry, CYP121 Dimer (CYP121 [3]; Protein-Ligand Ratio 1:1): 0
- ligand binding stoichiometry, CYP121 Monomer (CYP121 [3]; Protein-Ligand Ratio 1:1): 0
- Monomer (%) of CYP121 (CYP121 [3]; Protein-Ligand Ratio 1:25): 12%
- ligand binding stoichiometry, CYP121 Dimer (CYP121 [3]; Protein-Ligand Ratio 1:25): 1
- ligand binding stoichiometry, CYP121 Monomer (CYP121 [3]; Protein-Ligand Ratio 1:25): 1
- LE (ligand efficiency) (CYP121 [1]; [5]): 0.34

SMILES: NC(=O)c1cc(Cl)ccc1N [compound 7]
- LE (ligand efficiency) (CYP121 [1]; [5]): 0.30

SMILES: Nc1cccc(Cn2cncn2)c1 [compound 8]
- LE (ligand efficiency) (CYP121 [1]; [5]): 0.29

SMILES: Cc1ccc2cc(N)ccc2n1 [compound 9]
- LE (ligand efficiency) (CYP121 [1]; [5]): 0.39

Reference: article PMC4835159 (Journal of Medicinal Chemistry, 2016)
